# From ChEMBL document CHEMBL1158553, “Synthesis and biological activity of cyclotetrapeptide analogues of the natural HDAC inhibitor FR235222” (Bioorg Med Chem, 2010)
# How the values were obtained:
# [1] = target: Histone deacetylase 2 (Homo sapiens) (UniProt Q92769); details: HEK293; 50 uM
# [2] = target: Histone deacetylase 1 (Homo sapiens) (UniProt Q13547); details: HEK293; 50 uM
# [3] = target: Histone deacetylase 3 (Homo sapiens) (UniProt O15379); details: HEK293; 50 uM
# [4] = target: Histone deacetylase 4 (Homo sapiens) (UniProt P56524); details: 50 uM
# Sequence of Histone deacetylase 4 (Homo sapiens) (P56524 whole entry): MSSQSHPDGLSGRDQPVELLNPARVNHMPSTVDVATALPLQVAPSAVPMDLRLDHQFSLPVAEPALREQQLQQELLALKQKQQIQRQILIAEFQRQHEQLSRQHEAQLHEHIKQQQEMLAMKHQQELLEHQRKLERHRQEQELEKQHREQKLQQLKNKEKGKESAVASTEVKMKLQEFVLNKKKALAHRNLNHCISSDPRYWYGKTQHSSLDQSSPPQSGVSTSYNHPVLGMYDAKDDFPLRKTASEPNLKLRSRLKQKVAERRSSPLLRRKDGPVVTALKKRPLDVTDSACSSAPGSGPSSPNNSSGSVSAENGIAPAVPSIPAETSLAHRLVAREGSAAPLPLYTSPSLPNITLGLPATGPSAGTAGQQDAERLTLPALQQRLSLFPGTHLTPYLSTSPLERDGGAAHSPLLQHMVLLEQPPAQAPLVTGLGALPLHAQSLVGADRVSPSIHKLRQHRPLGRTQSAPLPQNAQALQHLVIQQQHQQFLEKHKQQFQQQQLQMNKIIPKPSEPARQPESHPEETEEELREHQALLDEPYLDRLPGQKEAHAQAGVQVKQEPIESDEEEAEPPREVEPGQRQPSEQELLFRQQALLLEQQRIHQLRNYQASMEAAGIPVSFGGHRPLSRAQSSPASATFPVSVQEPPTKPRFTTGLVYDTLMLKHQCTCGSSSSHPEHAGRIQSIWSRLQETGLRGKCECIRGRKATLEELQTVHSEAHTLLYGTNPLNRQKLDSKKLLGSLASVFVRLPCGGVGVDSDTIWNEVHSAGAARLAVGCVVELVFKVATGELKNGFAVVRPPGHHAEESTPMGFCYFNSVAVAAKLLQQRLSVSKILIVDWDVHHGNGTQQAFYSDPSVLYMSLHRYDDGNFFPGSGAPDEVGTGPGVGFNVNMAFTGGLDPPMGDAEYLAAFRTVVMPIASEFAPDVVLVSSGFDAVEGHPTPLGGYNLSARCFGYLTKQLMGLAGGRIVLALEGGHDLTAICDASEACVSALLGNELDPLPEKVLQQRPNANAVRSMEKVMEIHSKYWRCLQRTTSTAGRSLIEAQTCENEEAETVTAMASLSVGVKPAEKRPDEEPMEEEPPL
# [5] = target: Histone deacetylase (Homo sapiens) (UniProt Q13547+O15379+Q9UBN7+Q92769+Q9UQL6+Q8WUI4+Q9BY41+Q96DB2+P56524+Q9UKV0+Q969S8); details: HeLa, 100 uM
# [6] = target: Histone deacetylase 2 (Homo sapiens) (UniProt Q92769); details: HEK293; 100 uM
# [7] = target: T1, Histone deacetylase 7 (Homo sapiens) (UniProt Q8WUI4); details: 100 uM
# T1 sequence (whole entry): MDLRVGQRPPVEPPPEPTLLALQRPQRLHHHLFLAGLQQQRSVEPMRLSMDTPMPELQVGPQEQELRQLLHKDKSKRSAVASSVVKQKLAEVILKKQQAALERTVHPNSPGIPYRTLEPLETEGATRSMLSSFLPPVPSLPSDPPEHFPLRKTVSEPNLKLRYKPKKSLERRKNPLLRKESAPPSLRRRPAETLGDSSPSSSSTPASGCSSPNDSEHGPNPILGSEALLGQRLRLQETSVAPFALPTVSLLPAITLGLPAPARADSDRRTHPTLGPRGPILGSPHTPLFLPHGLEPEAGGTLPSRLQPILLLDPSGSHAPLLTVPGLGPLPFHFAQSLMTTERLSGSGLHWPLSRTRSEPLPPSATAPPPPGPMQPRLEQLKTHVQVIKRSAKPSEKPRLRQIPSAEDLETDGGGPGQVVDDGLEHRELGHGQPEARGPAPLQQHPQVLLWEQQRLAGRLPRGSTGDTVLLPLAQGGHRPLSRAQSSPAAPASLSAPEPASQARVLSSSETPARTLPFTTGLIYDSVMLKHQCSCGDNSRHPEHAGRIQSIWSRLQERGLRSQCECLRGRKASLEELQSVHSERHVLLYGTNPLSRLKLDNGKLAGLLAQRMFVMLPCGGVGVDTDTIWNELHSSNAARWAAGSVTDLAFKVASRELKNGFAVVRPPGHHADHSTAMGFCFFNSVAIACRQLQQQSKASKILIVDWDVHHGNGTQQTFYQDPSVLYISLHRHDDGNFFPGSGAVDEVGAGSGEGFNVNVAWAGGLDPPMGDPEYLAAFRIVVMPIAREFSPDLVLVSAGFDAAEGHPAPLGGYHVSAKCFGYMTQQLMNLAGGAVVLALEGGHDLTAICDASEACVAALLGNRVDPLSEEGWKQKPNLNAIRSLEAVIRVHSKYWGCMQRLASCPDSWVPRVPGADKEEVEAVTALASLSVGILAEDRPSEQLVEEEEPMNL
# [8] = target: Histone deacetylase 3 (Homo sapiens) (UniProt O15379); details: HEK293; 100 uM
# [9] = target: Histone deacetylase 4 (Homo sapiens) (UniProt P56524); details: 100 uM
# Sequence of Histone deacetylase 3 (Homo sapiens) (O15379 whole entry): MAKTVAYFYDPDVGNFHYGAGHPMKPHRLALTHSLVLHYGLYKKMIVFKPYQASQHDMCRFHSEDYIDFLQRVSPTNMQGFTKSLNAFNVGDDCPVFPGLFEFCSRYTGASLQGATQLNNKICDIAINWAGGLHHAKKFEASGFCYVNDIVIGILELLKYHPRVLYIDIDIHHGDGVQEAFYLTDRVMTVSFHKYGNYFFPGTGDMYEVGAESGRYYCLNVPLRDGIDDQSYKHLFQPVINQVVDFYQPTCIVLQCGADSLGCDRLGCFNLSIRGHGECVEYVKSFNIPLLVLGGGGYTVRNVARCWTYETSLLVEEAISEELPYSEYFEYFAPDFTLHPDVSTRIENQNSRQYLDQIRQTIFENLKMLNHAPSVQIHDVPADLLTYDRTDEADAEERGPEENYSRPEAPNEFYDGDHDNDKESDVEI
# Sequence of Histone deacetylase 2 (Homo sapiens) (Q92769 whole entry): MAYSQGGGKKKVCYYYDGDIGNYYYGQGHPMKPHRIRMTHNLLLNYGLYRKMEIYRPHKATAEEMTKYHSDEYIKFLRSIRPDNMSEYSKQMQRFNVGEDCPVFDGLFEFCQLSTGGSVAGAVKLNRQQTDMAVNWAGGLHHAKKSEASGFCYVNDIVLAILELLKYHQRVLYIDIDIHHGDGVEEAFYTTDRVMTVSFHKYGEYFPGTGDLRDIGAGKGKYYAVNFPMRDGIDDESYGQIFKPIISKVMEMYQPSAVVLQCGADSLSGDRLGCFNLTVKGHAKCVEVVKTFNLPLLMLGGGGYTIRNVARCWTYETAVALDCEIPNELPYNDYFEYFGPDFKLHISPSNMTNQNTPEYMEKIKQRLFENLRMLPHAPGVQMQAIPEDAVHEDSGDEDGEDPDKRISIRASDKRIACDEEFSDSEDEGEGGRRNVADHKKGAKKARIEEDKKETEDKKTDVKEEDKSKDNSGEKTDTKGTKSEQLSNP
# Sequence of Histone deacetylase 1 (Homo sapiens) (Q13547 whole entry): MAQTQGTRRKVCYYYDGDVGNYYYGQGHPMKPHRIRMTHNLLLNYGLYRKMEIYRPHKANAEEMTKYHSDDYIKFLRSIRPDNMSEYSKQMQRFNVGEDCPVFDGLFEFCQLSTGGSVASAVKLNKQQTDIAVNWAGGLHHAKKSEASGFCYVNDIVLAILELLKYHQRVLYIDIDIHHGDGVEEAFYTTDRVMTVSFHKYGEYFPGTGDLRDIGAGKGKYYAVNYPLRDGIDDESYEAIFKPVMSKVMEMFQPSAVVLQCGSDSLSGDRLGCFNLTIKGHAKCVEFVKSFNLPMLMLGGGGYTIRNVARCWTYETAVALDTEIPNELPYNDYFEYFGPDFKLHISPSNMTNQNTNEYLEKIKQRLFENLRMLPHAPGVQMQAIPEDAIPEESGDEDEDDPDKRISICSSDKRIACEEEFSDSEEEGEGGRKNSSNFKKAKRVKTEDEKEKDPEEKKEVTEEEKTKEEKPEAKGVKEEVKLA
compound,measurement,setting,value
O=C(CCCCC[C@@H]1NC(=O)[C@H]2CCCN2C(=O)[C@H](Cc2ccccc2)NC(=O)[C@H](Cc2c[nH]c3ccccc23)NC1=O)NO,inhibition,[1],30%
same,inhibition,[2],42%
same,inhibition,[3],14.7%
O=C(O)CC/C=C\C[C@@H]1NC(=O)[C@H]2CCCN2C(=O)[C@H](Cc2ccccc2)NC(=O)[C@H](Cc2c[nH]c3ccccc23)NC1=O,inhibition,[4],37%
O=C(O)CC/C=C\C[C@@H]1NC(=O)[C@H](Cc2c[nH]c3ccccc23)NC(=O)[C@H]2CCCN2C(=O)[C@H](Cc2c[nH]c3ccccc23)NC1=O,inhibition,[5],30%
O=C(CCCCC[C@@H]1NC(=O)[C@H](Cc2c[nH]c3ccccc23)NC(=O)[C@H]2CCCN2C(=O)[C@H](Cc2c[nH]c3ccccc23)NC1=O)NO,inhibition,[6],34%
same,inhibition,[7],48.5%
same,inhibition,[8],23.5%
C[C@H](O)C(=O)CCCCC[C@@H]1NC(=O)[C@H]2CCCN2C(=O)[C@H](Cc2ccccc2)NC(=O)[C@H](Cc2c[nH]c3ccccc23)NC1=O,inhibition,[9],50%
